Measured values: the NIST ThermoML archive (doi:10.1016/j.jct.2018.05.003)
Numbers after ± are expanded uncertainties.

Tests used:
[1] = activity coefficient (dimensionless); of the first substance listed, at infinite dilution; xn = mol fraction of the nth substance listed; details: 298.15 K; 101.33 kPa; Liquid; Chromatography; x1 = 0
[2] = Crystal; visual observation

SMILES | activity coefficient [1] | Normal melting temperature [2]
CC(Cl)CCl (stereo unspecified) [1,2-dichloropropane] + CCCCCOC(C)=O | 0.61 ± 0.03 | –
O=C(C(=O)c1ccccc1)c1ccccc1 [1,2-diphenylethanedione] | – | 95.4 ± 1.1 °C
Cc1cccc(C)c1 [1,3-dimethylbenzene] + CCCCCOC(C)=O | 0.9 ± 0.03 | –
Cc1ccc(C)cc1 [1,4-dimethylbenzene] + CCCCCOC(C)=O | 0.92 ± 0.03 | –
C1COCCO1 [1,4-dioxane] + CCCCCOC(C)=O | 0.91 ± 0.03 | –
C=CCCCCC=C [1,7-octadiene] + CCCCCOC(C)=O | 1.14 ± 0.05 | –
CCCCCl [1-chlorobutane] + CCCCCOC(C)=O | 0.84 ± 0.03 | –
C=CCCCCC [1-heptene] + CCCCCOC(C)=O | 1.35 ± 0.04 | –
C#CCCCCCC [1-octyne] + CCCCCOC(C)=O | 0.85 ± 0.03 | –
CC(C)Br [2-bromopropane] + CCCCCOC(C)=O | 0.82 ± 0.03 | –
O=C(O)c1cc([N+](=O)[O-])ccc1Cl [2-chloro-5-nitrobenzoic acid] | – | 167.0 ± 1.1 °C
O=C(O)c1ccccc1O [2-hydroxybenzoic acid] | – | 159.6 ± 1.1 °C
Cc1cccc(C(=O)O)c1 [3-methylbenzoic acid] | – | 109.2 ± 0.9 °C
O=C(O)c1cccc([N+](=O)[O-])c1 [3-nitrobenzoic acid] | – | 141.6 ± 0.9 °C
O=C(O)c1ccc(Cl)c([N+](=O)[O-])c1 [4-chloro-3-nitrobenzoic acid] | – | 183.2 ± 1.1 °C
c1ccc2c(c1)Nc1ccccc1S2 [10H-phenothiazine] | – | 184.8 ± 0.7 °C
CC(C)=O [acetone] + CCCCCOC(C)=O | 1.19 ± 0.05 | –
CC#N [acetonitrile] + CCCCCOC(C)=O | 1.69 ± 0.05 | –
c1ccccc1 [benzene] + CCCCCOC(C)=O | 0.73 ± 0.03 | –
O=C(O)c1ccccc1 [benzoic acid] | – | 122.5 ± 0.9 °C
Brc1ccccc1 [bromobenzene] + CCCCCOC(C)=O | 0.78 ± 0.05 | –

SMILES | activity coefficient [1] | Normal melting temperature [2]
C1CCCCC1 [cyclohexane] + CCCCCOC(C)=O | 1.51 ± 0.05 | –
C1=CCCCC1 [cyclohexene] + CCCCCOC(C)=O | 1.16 ± 0.03 | –
CCCCCCCCCC [decane] + CCCCCOC(C)=O | 2.5 ± 0.13 | –
O=S(=O)(c1ccccc1)c1ccccc1 [diphenyl sulfone] | – | 125.1 ± 0.9 °C
CCO [ethanol] + CCCCCOC(C)=O | 2.97 ± 0.12 | –
CCOC(C)=O [ethyl acetate] + CCCCCOC(C)=O | 0.96 ± 0.03 | –
CCc1ccccc1 [ethylbenzene] + CCCCCOC(C)=O | 0.98 ± 0.04 | –
Fc1ccccc1 [fluorobenzene] + CCCCCOC(C)=O | 0.61 ± 0.03 | –
CCCCCCC [heptane] + CCCCCOC(C)=O | 1.9 ± 0.1 | –
C=CCCCC [hex-1-ene] + CCCCCOC(C)=O | 1.22 ± 0.03 | –
CCCCCC [hexane] + CCCCCOC(C)=O | 1.74 ± 0.1 | –
C[N+](=O)[O-] [nitromethane] + CCCCCOC(C)=O | 1.28 ± 0.05 | –
CCCCCCCCC [nonane] + CCCCCOC(C)=O | 2.17 ± 0.14 | –
CCCCCCCC [octane] + CCCCCOC(C)=O | 2.02 ± 0.09 | –
CCCO [propan-1-ol] + CCCCCOC(C)=O | 2.43 ± 0.11 | –
CC(C)O [propan-2-ol] + CCCCCOC(C)=O | 2.86 ± 0.11 | –
CCCc1ccccc1 [propylbenzene] + CCCCCOC(C)=O | 1.02 ± 0.06 | –
C1CCOC1 [tetrahydrofuran] + CCCCCOC(C)=O | 0.8 ± 0.04 | –
Cc1ccccc1 [toluene] + CCCCCOC(C)=O | 0.86 ± 0.04 | –
ClC(Cl)Cl [trichloromethane] + CCCCCOC(C)=O | 0.27 ± 0.03 | –
